Data as given in ChEMBL document CHEMBL1132398, “Identification of (-)-cis-6-acetyl-4S-(3-chloro-4-fluoro-benzoylamino)- 3,4-dihydro-2,2-dimethyl-2H-benzo[b]pyran-3S-ol as a potential antimigraine agent” (Bioorg Med Chem Lett, 1999).

What was measured:
Mus musculus [1] = experiment: In vivo percent increase in seizure threshold in mouse MEST model 1 hour following 10 mg/kg p.o.; conditions: at 10 mg/kg
Mus musculus [2] = experiment: In vivo percent increase in seizure threshold in mouse MEST model 4 hours following 10 mg/kg p.o.; conditions: at 10 mg/kg
Rattus norvegicus [3] = experiment: In vivo percent increase in seizure threshold in rat MEST model at the dose of 10 mg/kg p.o. recorded 0.25 hr post dose; assay type: functional; conditions: route oral
Rattus norvegicus [4] = experiment: In vivo percent increase in seizure threshold in rat MEST model at the dose of 10 mg/kg p.o. recorded 0.5 hr post dose; assay type: functional; conditions: route oral
Rattus norvegicus [5] = experiment: In vivo percent increase in seizure threshold in rat MEST model at the dose of 10 mg/kg p.o. recorded 1 hr post dose; assay type: functional; conditions: route oral
Rattus norvegicus [6] = experiment: In vivo percent increase in seizure threshold in rat MEST model at the dose of 10 mg/kg p.o. recorded 2 hr post dose; assay type: functional; conditions: route oral
Rattus norvegicus [7] = experiment: In vivo percent increase in seizure threshold in rat MEST model at the dose of 10 mg/kg p.o. recorded 6 hr post dose; assay type: functional; conditions: route oral
Rattus norvegicus [8] = species on record: Rattus norvegicus; experiment: Ability to displace [3H]- SB-204269 in the rat forebrain
Rattus norvegicus [9] = experiment: In vivo percent increase in seizure threshold in rat MEST model at the dose of 3 mg/kg p.o. recorded 4 hr post dose; assay type: functional; conditions: route oral
Rattus norvegicus [10] = experiment: In vivo percent increase in seizure threshold in rat MEST model at the dose of 3 mg/kg p.o. recorded 6 hr post dose; assay type: functional; conditions: route oral
Rattus norvegicus [11] = experiment: In vivo percent increase in seizure threshold in rat MEST model at the dose of 3 mg/kg p.o. recorded 0.25 hr post dose; assay type: functional; conditions: route oral
Rattus norvegicus [12] = experiment: In vivo percent increase in seizure threshold in rat MEST model at the dose of 3 mg/kg p.o. recorded 0.5 hr post dose; assay type: functional; conditions: route oral
Rattus norvegicus [13] = experiment: In vivo percent increase in seizure threshold in rat MEST model at the dose of 3 mg/kg p.o. recorded 1 hr post dose; assay type: functional; conditions: route oral
Rattus norvegicus [14] = experiment: In vivo percent increase in seizure threshold in rat MEST model at the dose of 3 mg/kg p.o. recorded 2 hr post dose; assay type: functional; conditions: route oral

SMILES: CC(=O)c1ccc2c(c1)[C@H](NC(=O)c1ccsc1Cl)[C@@H](O)C(C)(C)O2
- Increase (Mus musculus [1]): 95%
- Increase (Mus musculus [2]): 519%

SMILES: CC(=O)c1ccc2c(c1)[C@H](NC(=O)c1ccsc1)[C@@H](O)C(C)(C)O2
- Increase (Mus musculus [1]): 50%

SMILES: CC(=O)c1ccc2c(c1)[C@H](NC(=O)c1cccc(Cl)c1)[C@@H](O)C(C)(C)O2
- Increase (Rattus norvegicus [3]): 157%
- Increase (Rattus norvegicus [4]): 273%
- Increase (Rattus norvegicus [5]): 507%
- Increase (Rattus norvegicus [6]): 796%
- Increase (Rattus norvegicus [7]): 983%
- Increase (Mus musculus [1]): 90%
- Increase (Mus musculus [2]): 945%

SMILES: CC(=O)c1ccc2c(c1)[C@H](NC(=O)c1cccnc1)[C@@H](O)C(C)(C)O2
- Increase (Mus musculus [1]): 30%

SMILES: CC(=O)c1ccc2c(c1)[C@H](NC(=O)c1ccsc1Cl)[C@H](O)C(C)(C)O2
- Log Ki (Rattus norvegicus [8]): -7.5
- Increase (Mus musculus [1]): 47%
- Increase (Mus musculus [2]): 383%

SMILES: CC(=O)c1ccc2c(c1)[C@H](NC(=O)c1cnccn1)[C@@H](O)C(C)(C)O2
- Increase (Mus musculus [1]): 15%

SMILES: CC(=O)c1ccc2c(c1)[C@H](NC(=O)c1c(Cl)cccc1Cl)[C@@H](O)C(C)(C)O2
- Increase (Mus musculus [1]): 10%

SMILES: CC(=O)c1ccc2c(c1)[C@@H](NC(=O)c1cccc(Cl)c1)[C@@H](O)C(C)(C)O2
- Log Ki (Rattus norvegicus [8]): > -5.4

SMILES: CC(=O)c1ccc2c(c1)[C@H](NC(=O)c1ccc(F)cc1)[C@@H](O)C(C)(C)O2 [CARABERSAT]
- Increase (Rattus norvegicus [3]): 48%
- Increase (Rattus norvegicus [4]): 90%
- Increase (Rattus norvegicus [5]): 180%
- Increase (Rattus norvegicus [6]): 420%
- Increase (Rattus norvegicus [7]): 390%
- Log Ki (Rattus norvegicus [8]): -7.3

SMILES: CC(=O)c1ccc2c(c1)[C@H](NC(=O)c1cccc(Cl)c1Cl)[C@@H](O)C(C)(C)O2
- Increase (Rattus norvegicus [3]): 104%
- Increase (Rattus norvegicus [4]): 286%
- Increase (Rattus norvegicus [5]): 880%
- Increase (Rattus norvegicus [6]): 1124%
- Increase (Rattus norvegicus [7]): 1076%

SMILES: CC(=O)c1ccc2c(c1)[C@H](NC(=O)c1ccc(F)c(Cl)c1)[C@H](O)C(C)(C)O2 [TONABERSAT]
- Increase (Rattus norvegicus [9]): 533%
- Increase (Rattus norvegicus [10]): 638%
- Increase (Rattus norvegicus [11]): 76%
- Increase (Rattus norvegicus [12]): 202%
- Increase (Rattus norvegicus [13]): 369%
- Increase (Rattus norvegicus [14]): 576%
- Log Ki (Rattus norvegicus [8]): -7.9

SMILES: CC(=O)c1ccc2c(c1)[C@H](NC(=O)c1ccc(F)cc1Cl)[C@@H](O)C(C)(C)O2
- Increase (Rattus norvegicus [9]): 900%
- Increase (Rattus norvegicus [10]): 1060%
- Increase (Rattus norvegicus [11]): 90%
- Increase (Rattus norvegicus [12]): 208%
- Increase (Rattus norvegicus [13]): 300%
- Increase (Rattus norvegicus [14]): 660%
- Increase (Mus musculus [1]): 162%
- Increase (Mus musculus [2]): 1080%

SMILES: CC(=O)c1ccc2c(c1)[C@H](NC(=O)c1cccc(Cl)c1)[C@H](O)C(C)(C)O2
- Increase (Mus musculus [1]): 93%
- Increase (Mus musculus [2]): 604%

SMILES: CC(=O)c1ccc2c(c1)[C@H](NC(=O)c1cc(Cl)cc(Cl)c1Cl)[C@@H](O)C(C)(C)O2
- Increase (Mus musculus [1]): 33%

SMILES: CC(=O)c1ccc2c(c1)[C@H](NC(=O)c1ccc(F)cc1Cl)[C@H](O)C(C)(C)O2
- Log Ki (Rattus norvegicus [8]): -7.2
- Increase (Mus musculus [1]): 153%
- Increase (Mus musculus [2]): 269%
